In US8133847B2, “Pyrido[2,3-B]pyrazine derivatives useful as herbicidal compounds” (Syngenta Limited, priority 2006, dated 2012):

Tests used:
Test in all cases: Example B1 herbicidal action, post-emergence, 96-cell seed trays, climatic chamber
Type in all cases: in vivo
[1] = system: Amaranthus retroflexus (AMARE); conditions: Application post-emergence, 1000 mg/l spray equivalent to 1000 g/ha, evaluated after 9 days
Procedure: (§1) Seeds of a variety of test species were sown in sterilised standard soil in seed trays each having 96 cells. After cultivation for 8 to 9 days cultivation (post-emergence) under controlled conditions in a climatic chamber (cultivation at 23/17° C., day/night; 13 hours light; 50-60% humidity), the plants were treated with an aqueous spray solution of 1000 mg/l of the active ingredient dissolved in 10% DMSO (dimethyl sulfoxide, CAS RN 67-68-5) as a solvent, equivalent to 1000 g/ha. The plants were grown in the climatic chamber after application at (24/19° C., day/night; 13 hours light; 50-60% humidity) and watered twice daily. After 9 days until the test was evaluated (100=total damage to plant, 0=no damage to plant)

[2] = system: Solanum nigrum (SOLNI); conditions: Application post-emergence, 1000 mg/l spray equivalent to 1000 g/ha, evaluated after 9 days (100=total damage to plant, 0=no damage to plant)
Procedure: as §1

[3] = system: Stellaria media (STEME); conditions: Application post-emergence, 1000 mg/l spray equivalent to 1000 g/ha, evaluated after 9 days (100=total damage to plant, 0=no damage to plant)
Procedure: as §1

[4] = system: Nasturtium officinale (NAAOF); parameters: scale not given here; conditions: Application post-emergence, 1000 mg/l spray equivalent to 1000 g/ha, evaluated after 9 days (100=total damage to plant, 0=no damage to plant)
Procedure: as §1

Row | SMILES | damage to plant, Amaranthus retroflexus (AMARE) [1] | damage to plant, Solanum nigrum (SOLNI) [2] | damage to plant, Stellaria media (STEME) [3] | damage to plant, Nasturtium officinale (NAAOF) [4]
1 | Cc1ccc(Cl)c(-c2c(O)c3nccnc3[nH]c2=O)c1F [Compound A33] | 4 | 3 | 3 | 2
2 | O=c1[nH]c2nccnc2c(O)c1-c1cc(C(F)(F)F)ccc1Cl [Compound A34] | 6 | 2 | 4 | 4
3 | Cc1ccc(F)c(-c2c(O)c3nccnc3[nH]c2=O)c1Cl [Compound A35] | 4 | 4 | 0 | 3
4 | CC(=O)Oc1c(-c2ccc(Cl)cc2Cl)c(=O)[nH]c2nccnc12 [Compound B1] | 8 | 0 | 3 | 0
5 | CC(C)C(=O)Oc1c(-c2ccc(F)cc2Cl)c(=O)[nH]c2nccnc12 [Compound B2] | 5 | 0 | 0 | 0
6 | CCC(=O)Oc1c(-c2ccc(F)cc2Cl)c(=O)[nH]c2nccnc12 [Compound B3] | 8 | 0 | 2 | 0
7 | CC(=O)Oc1c(-c2ccccc2OC(F)(F)F)c(=O)[nH]c2nccnc12 [Compound B8] | 1 | 2 | 3 | 3
8 | CC(=O)Oc1c(-c2c(Cl)cccc2Cl)c(=O)[nH]c2nccnc12 [Compound B10] | 8 | 0 | 0 | 6
9 | CCC(=O)Oc1c(-c2c(Cl)cccc2Cl)c(=O)[nH]c2nccnc12 [Compound B11] | 8 | 0 | 1 | 3
10 | CC(=O)Oc1c(-c2c(Cl)cc(C(F)(F)F)cc2Cl)c(=O)[nH]c2nccnc12 [Compound B15] | 0 | 0 | 2 | 7
11 | CC(C)(C)C(=O)Oc1c(-c2ccccc2OC(F)(F)F)c(=O)[nH]c2nccnc12 [Compound B17] | 0 | 2 | 0 | 0
12 | CC(=O)Oc1c(-c2c(C)cc(C)cc2C)c(=O)[nH]c2nccnc12 [Compound B33] | 5 | 0 | 3 | 5
13 | Cc1ccc(Cl)c(-c2c(OC(=O)C(C)(C)C)c3nccnc3[nH]c2=O)c1F [Compound B37] | 0 | 0 | 5 | 0
14 | CC(C)C(=O)Oc1c(-c2cc(C(F)(F)F)ccc2Cl)c(=O)[nH]c2nccnc12 [Compound B38] | 4 | 0 | 0 | 4
15 | O=C(Oc1c(-c2c(F)ccc(F)c2Cl)c(=O)[nH]c2nccnc12)c1ccc([N+](=O)[O-])cc1 [Compound B40] | 6 | 0 | 1 | 0
16 | CC(C)(C)C(=O)Oc1c(-c2c(Cl)cc(C(F)(F)F)cc2Cl)c(=O)[nH]c2nccnc12 [Compound B41] | 2 | 2 | 1 | 2
17 | CCn1c(=O)c(-c2ccc(F)cc2Cl)c(OC(=O)C(C)C)c2nccnc21 [Compound C3] | 0 | 5 | 6 | 7
18 | CC(C)C(=O)Oc1c(-c2ccc(F)cc2Cl)c(=O)n(C)c2nccnc12 [Compound C5] | 7 | 2 | 8 | 7
19 | CCn1c(=O)c(-c2ccc(Cl)cc2Cl)c(OC(C)=O)c2nccnc21 [Compound C6] | 8 | 5 | 9 | 8
20 | COCCn1c(=O)c(-c2ccc(Cl)cc2Cl)c(OC(C)=O)c2nccnc21 [Compound C9] | 0 | 3 | 2 | 2
21 | CCn1c(=O)c(-c2c(F)ccc(F)c2Cl)c(OC(=O)C(C)C)c2nccnc21 [Compound C11] | 9 | 5 | 8 | 8
22 | CCn1c(=O)c(-c2c(F)ccc(F)c2Cl)c(OC(C)=O)c2nccnc21 [Compound C13] | 8 | 2 | 8 | 8
23 | C=CCn1c(=O)c(-c2c(F)ccc(F)c2Cl)c(OC(C)=O)c2nccnc21 [Compound C14] | 7 | 4 | 8 | 8
